In ChEMBL document CHEMBL4138214, “Urokinase receptor derived peptides as potent inhibitors of the formyl peptide receptor type 1-triggered cell migration” (Eur J Med Chem, 2018):
Activity calls are given as the source filed them. The rule behind the calls is not given here. Square brackets hold non-standard residues; d marks the D form. Peptide text beside a SMILES is read from it. 1Nal = N[C@@H](Cc1cccc2ccccc12)C(=O)O; 2Nal = N[C@@H](Cc1ccc2ccccc2c1)C(=O)O; pS = N[C@@H](COP(=O)(O)O)C(=O)O

system: RBL-2H3; assay: Induction of cell migration in rat RBL2H3 cells at 10 nM after 6 hrs by RTCA; type: cell-based; conditions: rbl-2h3, 6 h, 0.01 µM

Compound | Activity
N=C(N)NCCC[C@@H]1NC(=O)[C@H](CO)NC(=O)[C@H](CO)NC(=O)[C@H](Cc2ccc(O)cc2)NC(=O)[C@H](CCCNC(=N)N)NC1=O (cyclo(RRYSS)) | Non-Toxic
N=C(N)NCCC[C@@H]1NC(=O)[C@H](CO)NC(=O)[C@H](CCCNC(=N)N)NC(=O)[C@H](Cc2ccc(O)cc2)NC(=O)[C@H](CO)NC1=O (cyclo(RSRSY)) | Non-Toxic
N=C(N)NCCC[C@@H]1NC(=O)[C@H](CO)NC(=O)[C@H](CCCNC(=N)N)NC(=O)[C@H](Cc2ccc(O)cc2)NC(=O)[C@H](COP(=O)(O)O)NC1=O (cyclo(RSR[pS]Y)) | Non-Toxic
N=C(N)NCCC[C@@H]1NC(=O)[C@H](COP(=O)(O)O)NC(=O)[C@H](CCCNC(=N)N)NC(=O)[C@H](Cc2ccc(O)cc2)NC(=O)[C@H](CO)NC1=O (cyclo(RSYR[pS])) | Non-Toxic
N=C(N)NCCC[C@@H]1NC(=O)[C@H](CCC(=O)O)NC(=O)[C@H](CCCNC(=N)N)NC(=O)[C@H](Cc2cccc3ccccc23)NC(=O)[C@H](CO)NC1=O (cyclo([1Nal]RERS)) | Non-Toxic
N=C(N)NCCC[C@@H]1NC(=O)[C@H](CCC(=O)O)NC(=O)[C@H](CCCNC(=N)N)NC(=O)[C@H](Cc2ccc3ccccc3c2)NC(=O)[C@H](CO)NC1=O (cyclo([2Nal]RERS)) | Non-Toxic

species: Rattus norvegicus; assay: Antagonist activity at FPR1 in rat RBL-2H3/ETFR cells assessed as inhibition of fMLF-induced cell migration at 10 nM after 6 hrs by RTCA relative to fMLF; type: cell-based; conditions: not given

Compound | inhibition [%]
N=C(N)NCCC[C@@H]1NC(=O)[C@H](CO)NC(=O)[C@H](CO)NC(=O)[C@H](Cc2ccc(O)cc2)NC(=O)[C@H](CCCNC(=N)N)NC1=O (cyclo(RRYSS)) | 0
N=C(N)NCCC[C@@H]1NC(=O)[C@H](CO)NC(=O)[C@H](CCCNC(=N)N)NC(=O)[C@H](Cc2ccc(O)cc2)NC(=O)[C@H](CO)NC1=O (cyclo(RSRSY)) | 75
N=C(N)NCCC[C@@H]1NC(=O)[C@H](CO)NC(=O)[C@H](CCCNC(=N)N)NC(=O)[C@H](Cc2ccc(O)cc2)NC(=O)[C@H](COP(=O)(O)O)NC1=O (cyclo(RSR[pS]Y)) | 31
N=C(N)NCCC[C@@H]1NC(=O)[C@H](COP(=O)(O)O)NC(=O)[C@H](CCCNC(=N)N)NC(=O)[C@H](Cc2ccc(O)cc2)NC(=O)[C@H](CO)NC1=O (cyclo(RSYR[pS])) | 36
N=C(N)NCCC[C@@H]1NC(=O)[C@H](CCC(=O)O)NC(=O)[C@H](CCCNC(=N)N)NC(=O)[C@H](Cc2cccc3ccccc23)NC(=O)[C@H](CO)NC1=O (cyclo([1Nal]RERS)) | 43
N=C(N)NCCC[C@@H]1NC(=O)[C@H](CCC(=O)O)NC(=O)[C@H](CCCNC(=N)N)NC(=O)[C@H](Cc2ccc3ccccc3c2)NC(=O)[C@H](CO)NC1=O (cyclo([2Nal]RERS)) | 23

species: Rattus norvegicus; assay: Inhibition of FITC-fMLF induced FPR1 internalization in rat RBL-2H3/ETFR cells at 10 uM preincubated for 30 mins followed by agonist addition measured after 30 mins by fluorescence assay; type: cell-based; conditions: not given

Compound | inhibition
N=C(N)NCCC[C@@H]1NC(=O)[C@H](CO)NC(=O)[C@H](CO)NC(=O)[C@H](Cc2ccc(O)cc2)NC(=O)[C@H](CCCNC(=N)N)NC1=O (cyclo(RRYSS)) | inactive
N=C(N)NCCC[C@@H]1NC(=O)[C@H](CO)NC(=O)[C@H](CCCNC(=N)N)NC(=O)[C@H](Cc2ccc(O)cc2)NC(=O)[C@H](CO)NC1=O (cyclo(RSRSY)) | Active
N=C(N)NCCC[C@@H]1NC(=O)[C@H](CCC(=O)O)NC(=O)[C@H](CCCNC(=N)N)NC(=O)[C@H](Cc2cccc3ccccc23)NC(=O)[C@H](CO)NC1=O (cyclo([1Nal]RERS)) | 62%
N=C(N)NCCC[C@@H]1NC(=O)[C@H](CCC(=O)O)NC(=O)[C@H](CCCNC(=N)N)NC(=O)[C@H](Cc2ccc3ccccc3c2)NC(=O)[C@H](CO)NC1=O (cyclo([2Nal]RERS)) | Active
CSCC[C@H](NC=O)C(=O)N[C@@H](CC(C)C)C(=O)N[C@@H](Cc1ccccc1)C(=O)O [N-FORMYLMETHIONYL-LEUCYLPHENYLALANINE] | Active
H-SRSRY-NH2 | Active

system: not listed separately; assay: Induction of cell migration in rat RBL2H3/ETFR cells stably expressing FPR1 at 10 nM after 6 hrs by RTCA; type: cell-based; conditions: 0.01 µM

Compound | Activity
N=C(N)NCCC[C@@H]1NC(=O)[C@H](CO)NC(=O)[C@H](CO)NC(=O)[C@H](Cc2ccc(O)cc2)NC(=O)[C@H](CCCNC(=N)N)NC1=O (cyclo(RRYSS)) | Non-Toxic
N=C(N)NCCC[C@@H]1NC(=O)[C@H](CO)NC(=O)[C@H](CCCNC(=N)N)NC(=O)[C@H](Cc2ccc(O)cc2)NC(=O)[C@H](CO)NC1=O (cyclo(RSRSY)) | Non-Toxic
N=C(N)NCCC[C@@H]1NC(=O)[C@H](CO)NC(=O)[C@H](CCCNC(=N)N)NC(=O)[C@H](Cc2ccc(O)cc2)NC(=O)[C@H](COP(=O)(O)O)NC1=O (cyclo(RSR[pS]Y)) | Non-Toxic
N=C(N)NCCC[C@@H]1NC(=O)[C@H](COP(=O)(O)O)NC(=O)[C@H](CCCNC(=N)N)NC(=O)[C@H](Cc2ccc(O)cc2)NC(=O)[C@H](CO)NC1=O (cyclo(RSYR[pS])) | Non-Toxic
N=C(N)NCCC[C@@H]1NC(=O)[C@H](CCC(=O)O)NC(=O)[C@H](CCCNC(=N)N)NC(=O)[C@H](Cc2cccc3ccccc23)NC(=O)[C@H](CO)NC1=O (cyclo([1Nal]RERS)) | Non-Toxic
N=C(N)NCCC[C@@H]1NC(=O)[C@H](CCC(=O)O)NC(=O)[C@H](CCCNC(=N)N)NC(=O)[C@H](Cc2ccc3ccccc3c2)NC(=O)[C@H](CO)NC1=O (cyclo([2Nal]RERS)) | Non-Toxic
CSCC[C@H](NC=O)C(=O)N[C@@H](CC(C)C)C(=O)N[C@@H](Cc1ccccc1)C(=O)O [N-FORMYLMETHIONYL-LEUCYLPHENYLALANINE] | Toxic

species: Rattus norvegicus; assay: (§1) Antagonist activity at FPR1 in rat RBL-2H3/ETFR cells assessed as inhibition of fMLF-induced cell migration after 4 hrs by RTCA relative to fMLF; type: cell-based; conditions: not given

Compound | inhibition
N=C(N)NCCC[C@@H]1NC(=O)[C@H](CO)NC(=O)[C@H](CCCNC(=N)N)NC(=O)[C@H](Cc2ccc(O)cc2)NC(=O)[C@H](CO)NC1=O (cyclo(RSRSY)) | Dose-dependent effect

system: not listed separately; assay: as §1; type: cell-based; conditions: Rattus norvegicus, RBL-2H3, 4 h; read-out: IC50

IC50 [pM] | Compound
0.1 | N=C(N)NCCC[C@@H]1NC(=O)[C@H](CO)NC(=O)[C@H](CCCNC(=N)N)NC(=O)[C@H](Cc2ccc(O)cc2)NC(=O)[C@H](CO)NC1=O (cyclo(RSRSY))

species: Rattus norvegicus; assay: Inhibition of FITC-fMLF induced FPR1 internalization in rat RBL-2H3/ETFR cells at 10 uM preincubated for 30 mins followed by agonist addition measured after 30 mins by confocal fluorescent microscopy; type: cell-based; conditions: not given

Compound | inhibition
N=C(N)NCCC[C@@H]1NC(=O)[C@H](CO)NC(=O)[C@H](CO)NC(=O)[C@H](Cc2ccc(O)cc2)NC(=O)[C@H](CCCNC(=N)N)NC1=O (cyclo(RRYSS)) | inactive
N=C(N)NCCC[C@@H]1NC(=O)[C@H](CO)NC(=O)[C@H](CCCNC(=N)N)NC(=O)[C@H](Cc2ccc(O)cc2)NC(=O)[C@H](CO)NC1=O (cyclo(RSRSY)) | Active
CSCC[C@H](NC=O)C(=O)N[C@@H](CC(C)C)C(=O)N[C@@H](Cc1ccccc1)C(=O)O [N-FORMYLMETHIONYL-LEUCYLPHENYLALANINE] | Active
